This is an account of results in patent publication US12084422B2, “Phenyl-n-quinoline derivatives for treating a RNA virus infection” (ABIVAX, priority 2018, dated 2024).

The experiment deals with DENV-2 strain 16681. Kind of experiment: Screening for DENV-2 inhibition using Viral ToxGlo assay in A549 cells. The class given is cell-based, Dengue 2 virus. Particulars: Dengue virus, DENV2, A549, 120 h, read-out: % DENV-2 Inhibition Mean (n = 3).
Consider `Cc1cc(OC(C)C)ccc1Nc1ccc2cccc(Cl)c2n1` [Compound 10, 8-chloro-N-(4-isopropoxy-2-methylphenyl)quinolin-2-amine], for which the inhibition – broadly, the drop in the measured response relative to a control, in per cent – at 10 µM was 79%.

For `CCc1cc(OC(C)C)ccc1Nc1ccc2cccc(Cl)c2n1` [Compound 13, 8-chloro-N-(2-ethyl-4-isopropoxyphenyl)quinolin-2-amine], the inhibition at 10 µM was found to be 117%.

On to `Cc1cc(OC(C)C)c(C)cc1Nc1ccc2cccc(Cl)c2n1` [Compound 43, 8-chloro-N-(4-isopropoxy-2,5-dimethylphenyl)quinolin-2-amine], for which the inhibition at 10 µM amounted to 68%.
